# According to patent US5726167A, “Inhibition of phosphatidylinositol 3-kinase with viridin, demethoxyviridin, viridiol, demethoxyviridiol, virone, wortmannolone, and analogs thereof” (Eli Lilly and Company, priority 1997, dated 1998):
# Molecular target: bovine brain purified PI 3-kinase
# Test: Assay of purified PI 3-kinase activity
# Format: biochemical
# Conditions: purified bovine brain PI 3-kinase, phosphatidylinositol substrate, 20 μM ATP
# Description: In another, preferred, method, PI 3-kinase was prepared from bovine brain. Two bovine brains (wet weight about 900 g) were obtained from a local slaughterhouse within minutes of slaughter, packed on ice, and homogenized within one hour. Brains were trimmed of excess fat and blood vessels and then homogenized using a Tekmar Tissuemizer (Cincinnati, Ohio) at 4° C. in 20 mM of Tris(pH 8.3) containing 250 mM of sucrose, 6 mM of β-mercaptoethanol, 1 μg/ml of leupeptin, 1 μg/ml of pepstatin A, 0.4 mM of PMSF, and 1 mM of MgCl2.
# Following centrifugation for 60 minutes at 10,000×g, the pH of the supernatant (about 1200 mL) was lowered to 5.75 using dropwise addition of 1M acetic acid at 4° C. After stirring for an additional 15 minutes at 4° C., the solution was centrifuged for 60 minutes at 13,500×g. The supernatant was discarded. Pellets were resuspended in Buffer A (20 mM of Tris, pH 8.3, containing 6 mM of β-mercaptoethanol, 0.1 mM of ethylene glycol-bis(β-aminoethyl ether) N,N,N',N'-tetraacetic acid (EGTA), 1 μg/mL of leupeptin, 1 μg/mL of pepstatin A, and 1 mM of MgCl2), and loaded onto a Fast Flow Q Sepharose column (300 ml) at a flow rate of 5 mL/minute at 4° C. […]
# PI 3-kinase activity was measured as previously described by Matter, W. F., et al., Biochemical and Biophysical Research Communications, 186: 624-631 (1992). […]
smiles,measurement,setting,value
COC1C(=O)c2coc3c2[C@@](C)(c2ccc4c(c2C3=O)CCC4=O)[C@@H]1O (some centres unmarked) [viridin],"one-half maximal inhibition, IC50",,0.85 ng/mL
same,IC50,"molar value in brackets, read-out: one-half maximal inhibition, IC50",2.4 nM
